According to patent US10413529B2, “Methods of inhibiting cataracts and presbyopia” (UNIVERSITY OF MASSACHUSETTS, priority 2013, dated 2019):
Read-outs that look alike come from different tables or passages of the source.

How the values were obtained:
γD-crystallin = target: T1, γD-crystallin (Homo sapiens, UniProt P07320); test: Dynamic light scattering (DLS) of γD-crystallin, hydrodynamic radius of monomer and aggregate; assay type: biochemical; settings: γD modified with the agent
T1 construct: 6xHis (N); made in house; host or cells: M15pRep E. coli (pQe1 plasmid from King Labs, MIT)
T1 sequence (P07320 1-174): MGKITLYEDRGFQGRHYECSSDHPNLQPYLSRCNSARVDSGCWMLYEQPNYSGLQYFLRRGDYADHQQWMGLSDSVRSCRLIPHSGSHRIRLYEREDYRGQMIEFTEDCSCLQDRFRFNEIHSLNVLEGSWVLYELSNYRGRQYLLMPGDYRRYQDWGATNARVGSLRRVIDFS
Procedure: The scattering wave vector is defined as q=4πn sin (θ/2)/λ, where θ is the scattering angle, and λ=514.5, the wavelength of the argon laser in vacuum, and n is 1.33, the refractive index of water. The temperature of the sample was held at constant temperature of 4 to 37±0.1° C. by a circulating water bath. The correlation function was analyzed using CONTIN analysis [NT] times for the correlation functions at measured angles. […] The delay times (τ) were converted to Γ and graphed versus q^2. The slope of the fitted line is the diffusion coefficient (D). […] All solutions were filtered with 0.22 μm hydrophobic PVDF membranes (Fisher Scientific) into 10 mm diameter borosilicate glass tubes and sealed. Solutions were allowed to equilibrate for thirty minutes prior to measuring light scattering. […] The pH and salt concentration were adjusted via overnight dialysis at 4° C. and their final concentration adjusted to 1.0 g/L. […] The scattering wave vector is defined as q=4πn sin (θ/2)/λ, where θ is the scattering angle, and λ=514.5, the wavelength of the argon laser in vacuum, and n is 1.33, the refractive index of water. The temperature of the sample was held at constant temperature of 4 to 37±0.1° C. by a circulating water bath. The correlation function was analyzed using CONTIN analysis [NT] times for the correlation functions at measured angles. […] The delay times (τ) were converted to Γ and graphed versus q^2. The slope of the fitted line is the diffusion coefficient (D). […] All solutions were filtered with 0.22 μm hydrophobic PVDF membranes (Fisher Scientific) into 10 mm diameter borosilicate glass tubes and sealed. Solutions were allowed to equilibrate for thirty minutes prior to measuring light scattering.

human cadaver lenses = test system: human cadaver lenses; parameters: key to LOCS III grade, Cortical / LOCS III grade, NO / LOCS III grade, PS / LOCS III grade, NC: LOCS III cataract grade on a decimal scale (higher = more severe)
Procedure: Within about 24 hours of death, the eyeball is harvested, sliced and the vitreous is removed. The lens is excised and placed in an incubation medium called Optisol®. Optisol® is a corneal storage medium containing chondroitin sulfate, dextran 40, optisol base powder, sodium bicarbonate, gentamycin, amino acids, sodium pyruvate, L-glutamine, 2-mercaptoethanol and purified water. OD is the right eye and OS is the left eye.
Lens opacities are classified according to the LOCS III system. LOCS III measurements are taken with a slit lamp microscope. The LOCS III contains an expanded set of standards selected from the Longitudinal Study of Cataract slide library at the Center for Clinical Cataract Research, Boston, Mass. It includes six slit lamp images for grading nuclear color (NC) and nuclear opalescence (NO), five retroillumination images for grading cortical cataract (C), and five retroillumination images for grading posterior subcapsular (P) cataract. Cataract severity is graded on a decimal scale, with the standards have regularly spaced intervals on the scale.
In all cases, the control is Optisol® medium. The remaining data points are for isolated human cadaver lenses treated with CAPEG4 solutions with Optisol®.

[1] = 10 mg/mL CAPEG4 (OD), 0 HR, Table 7
[2] = 10 mg/mL CAPEG4, 24 HR, Table 7
[3] = 10 mg/mL CAPEG4, 72 HR, Table 7
[4] = 50 mg/mL CAPEG4 (OD), 0 HR, Table 8
[5] = 50 mg/mL CAPEG4, 24 HR, Table 8
[6] = 50 mg/mL CAPEG4, 72 HR, Table 8
[7] = 100 mg/mL CAPEG4 (OD), 0 HR, Table 9
[8] = 100 mg/mL CAPEG4 (OD), 0 HR, Table 10 (repeat, different eyes)
[9] = 100 mg/mL CAPEG4, 24 HR, Table 9
[10] = 100 mg/mL CAPEG4, 24 HR, Table 10 (repeat, different eyes)
[11] = 100 mg/mL CAPEG4, 72 HR, Table 9
[12] = 100 mg/mL CAPEG4, 72 HR, Table 10 (repeat, different eyes)
[13] = 200 mg/mL CAPEG4 (OD), 0 HR, Table 11
[14] = 200 mg/mL CAPEG4 (OD), 0 HR, Table 12 (second pair of lenses)
[15] = 200 mg/mL CAPEG4, 24 HR, Table 11
[16] = 200 mg/mL CAPEG4, 24 HR, Table 12 (second pair of lenses)
[17] = 200 mg/mL CAPEG4, 72 HR, Table 11
[18] = 200 mg/mL CAPEG4, 72 HR, Table 12 (second pair of lenses)

NCCOCCOCCOCCOCCC(=O)O [CAPEG4]
Rh (γD-crystallin; fast mode (monomer), 37° C.): 2.8 nm
Rh (γD-crystallin; fast mode (monomer, first Rh column), 22° C.): 2.9 nm
Rh (γD-crystallin; fast mode (monomer, first Rh column), 22° C., listed as CAPEG): 2.8 nm
observation on lens capsule and lens volume (human cadaver lenses): wrinkling of the lens capsule was observed and subjectively exhibited some loss of lens volume
change of LOCS III grades versus control (human cadaver lenses; 10 mg/mL CAPEG4): no significant change in the experimental versus control samples
LOCS III grade, Cortical (human cadaver lenses; [1]): 1.0
LOCS III grade, NC (human cadaver lenses; [1]): 5.0
LOCS III grade, NO (human cadaver lenses; [1]): 5.0
LOCS III grade, PS (human cadaver lenses; [1]): 0.9
LOCS III grade, Cortical (human cadaver lenses; [2]): 1.0
LOCS III grade, NC (human cadaver lenses; [2]): 5.0
LOCS III grade, NO (human cadaver lenses; [2]): 5.0
LOCS III grade, PS (human cadaver lenses; [2]): 0.9
LOCS III grade, Cortical (human cadaver lenses; [3]): 0.9
LOCS III grade, NC (human cadaver lenses; [3]): 5.0
LOCS III grade, NO (human cadaver lenses; [3]): 5.0
LOCS III grade, PS (human cadaver lenses; [3]): 0.9
LOCS III grade, Cortical (human cadaver lenses; [4]): 1.0
LOCS III grade, NC (human cadaver lenses; [4]): 1.7
LOCS III grade, NO (human cadaver lenses; [4]): 2.0
LOCS III grade, PS (human cadaver lenses; [4]): 1.1
LOCS III grade, Cortical (human cadaver lenses; [5]): 1.0
LOCS III grade, NC (human cadaver lenses; [5]): 1.7
LOCS III grade, NO (human cadaver lenses; [5]): 2.0
LOCS III grade, PS (human cadaver lenses; [5]): 0.9
LOCS III grade, Cortical (human cadaver lenses; [6]): 1.0
LOCS III grade, NC (human cadaver lenses; [6]): 1.9
LOCS III grade, NO (human cadaver lenses; [6]): 2.0
LOCS III grade, PS (human cadaver lenses; [6]): 0.9
difference of cortical cataracts and NO versus controls (human cadaver lenses; 50 mg/mL CAPEG4, up to 72 hours): no significant differences between the controls and 50 mg/mL incubation
LOCS III grade, Cortical (human cadaver lenses; [7]): 3.0
LOCS III grade, NC (human cadaver lenses; [7]): 1.3
LOCS III grade, NO (human cadaver lenses; [7]): 1.8
LOCS III grade, PS (human cadaver lenses; [7]): 0.9
LOCS III grade, Cortical (human cadaver lenses; [8]): 3.0
LOCS III grade, NC (human cadaver lenses; [8]): 3.0
LOCS III grade, NO (human cadaver lenses; [8]): 3.0
LOCS III grade, PS (human cadaver lenses; [8]): 1.8
LOCS III grade, Cortical (human cadaver lenses; [9]): 2.9
LOCS III grade, NC (human cadaver lenses; [9]): 1.1
LOCS III grade, NO (human cadaver lenses; [9]): 1.2
LOCS III grade, PS (human cadaver lenses; [9]): 0.9
LOCS III grade, Cortical (human cadaver lenses; [10]): 2.6
LOCS III grade, NC (human cadaver lenses; [10]): 3.0
LOCS III grade, NO (human cadaver lenses; [10]): 3.0
LOCS III grade, PS (human cadaver lenses; [10]): 1.5
LOCS III grade, Cortical (human cadaver lenses; [11]): 2.7
LOCS III grade, NC (human cadaver lenses; [11]): 1.1
LOCS III grade, NO (human cadaver lenses; [11]): 1.2
LOCS III grade, PS (human cadaver lenses; [11]): 0.9
LOCS III grade, Cortical (human cadaver lenses; [12]): 2.0
LOCS III grade, NC (human cadaver lenses; [12]): 3.2
LOCS III grade, NO (human cadaver lenses; [12]): 3.0
LOCS III grade, PS (human cadaver lenses; [12]): 1.0
LOCS III grade, Cortical (human cadaver lenses; [13]): 2.5
LOCS III grade, NC (human cadaver lenses; [13]): 2.4
LOCS III grade, NO (human cadaver lenses; [13]): 2.4
LOCS III grade, PS (human cadaver lenses; [13]): 0
LOCS III grade, Cortical (human cadaver lenses; [14]): 1.3
LOCS III grade, NC (human cadaver lenses; [14]): 2.8
LOCS III grade, NO (human cadaver lenses; [14]): 3.2
LOCS III grade, PS (human cadaver lenses; [14]): 0.9
LOCS III grade, Cortical (human cadaver lenses; [15]): 2.2
LOCS III grade, NC (human cadaver lenses; [15]): 2.4
LOCS III grade, NO (human cadaver lenses; [15]): 2.4
LOCS III grade, PS (human cadaver lenses; [15]): 0
LOCS III grade, Cortical (human cadaver lenses; [16]): 1.0
LOCS III grade, NC (human cadaver lenses; [16]): 2.8
LOCS III grade, NO (human cadaver lenses; [16]): 3.2
LOCS III grade, PS (human cadaver lenses; [16]): 0.9
LOCS III grade, Cortical (human cadaver lenses; [17]): 2.0
LOCS III grade, NC (human cadaver lenses; [17]): 2.4
LOCS III grade, NO (human cadaver lenses; [17]): 2.4
LOCS III grade, PS (human cadaver lenses; [17]): 0
LOCS III grade, Cortical (human cadaver lenses; [18]): 0.9
LOCS III grade, NC (human cadaver lenses; [18]): 2.8
LOCS III grade, NO (human cadaver lenses; [18]): 3.2
LOCS III grade, PS (human cadaver lenses; [18]): 0.9
cause of reduction in cataracts (agent versus pH of medium) (human cadaver lenses; compared with Optisol lowered to the same pH with citric acid): due to the CAPEG4 and not a pH effect of the medium
